What was measured:
FOXM1 [1] = molecular target: T1, FOXM1 (Homo sapiens, UniProt Q08050); assay: Cellular FOXM1 protein level by Western blot; format: cell-based; parameters: endogenous in cells; host or cells: MDA-MB-231, MCF7; details: MDA-MB-231 or MCF7 cells over time; NB-55 5/8 µM, NB-73 1.5/4 µM, NB-115 4 µM, FDI-6 8 µM
T1 sequence (Q08050 1-763): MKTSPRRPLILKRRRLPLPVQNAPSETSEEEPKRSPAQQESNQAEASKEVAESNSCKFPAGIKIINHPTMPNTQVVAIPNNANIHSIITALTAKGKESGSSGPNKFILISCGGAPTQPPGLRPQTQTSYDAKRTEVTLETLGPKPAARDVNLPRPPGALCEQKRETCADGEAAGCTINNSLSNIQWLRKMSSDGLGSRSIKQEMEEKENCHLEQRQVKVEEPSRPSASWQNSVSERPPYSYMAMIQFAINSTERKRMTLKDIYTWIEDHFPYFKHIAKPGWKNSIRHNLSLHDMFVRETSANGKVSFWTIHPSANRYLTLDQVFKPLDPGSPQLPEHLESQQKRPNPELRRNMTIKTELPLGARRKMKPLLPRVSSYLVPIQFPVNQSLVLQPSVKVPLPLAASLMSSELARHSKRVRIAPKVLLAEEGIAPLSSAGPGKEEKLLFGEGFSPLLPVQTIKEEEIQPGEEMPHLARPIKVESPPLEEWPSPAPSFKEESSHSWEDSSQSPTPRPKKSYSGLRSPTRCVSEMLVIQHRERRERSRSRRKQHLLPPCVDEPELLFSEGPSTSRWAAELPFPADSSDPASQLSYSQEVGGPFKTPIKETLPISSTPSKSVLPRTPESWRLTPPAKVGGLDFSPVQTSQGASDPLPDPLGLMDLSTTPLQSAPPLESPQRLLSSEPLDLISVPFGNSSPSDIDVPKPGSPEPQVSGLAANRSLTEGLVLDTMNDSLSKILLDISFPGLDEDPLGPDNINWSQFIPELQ
Protocol: For Western blot analysis, whole-cell extracts were prepared using 1X RIPA lysis buffer (Thermo Fisher) supplemented with 1X protease inhibitor cocktail (Millipore Sigma). […] In some cases, treatments with compound were done in the presence of the proteasome inhibitor MG132 (Calbiochem) as described in the figure legend. […] Band intensities were analyzed with Licor Odyssey 2.1 software. All blots shown together derive from the same experiment and were processed in parallel. Full uncropped images of blots are shown as supplementary figures in the Supplementary Information file. Molecular weight markers were Rainbow markers from GE Healthcare (38–225 kDa) or Precision Plus Dual Color Markers from Biorad (37–250 kDa).

[2] = system: human breast cancer cell lines (DT22, MCF7, T47D, BT474, MDA-MB-453, MDA-MB-468, MDA-MB-231); assay: Cell proliferation (WST-1) in panel of breast cancer cell lines; format: cell-based; details: cells in culture
Protocol: WST-1 assay (Roche, Basel, Switzerland) was used to quantify cell viability as described.[38] Absorbance was measured at 450 nm using a VICTOR X5 PerkinElmer 2030 Multilabel Plate Reader. All assays were performed in triplicate and analyzed using Graph Pad Prism 8.0.

FOXM1 [3] = molecular target: T1, FOXM1; assay: Intracellular localization of FOXM1 (immunofluorescence, nuclear/cytoplasmic fractionation); format: cell-based; parameters: endogenous in cells; host or cells: MDA-MB-231, MCF7; details: 24 h, Western blot of nuclear and cytoplasmic extracts
Protocol: In some cases, treatments with compound were done in the presence of the proteasome inhibitor MG132 (Calbiochem) as described in the figure legend. […] Band intensities were analyzed with Licor Odyssey 2.1 software. All blots shown together derive from the same experiment and were processed in parallel. Full uncropped images of blots are shown as supplementary figures in the Supplementary Information file. Molecular weight markers were Rainbow markers from GE Healthcare (38–225 kDa) or Precision Plus Dual Color Markers from Biorad (37–250 kDa).

[4] = system: FOXM1 target gene expression in MCF7 cells; assay: FOXM1 target gene expression by qRT-PCR; format: cell-based, human; details: MCF7, 24 h, compound at its IC50 for proliferation
Protocol: Total RNA was isolated using TRIzol (Invitrogen) and reverse transcribed using […] reverse transcriptase (New England BioLabs). Real-time PCR was performed using SYBRgreen PCR Master Mix (Quantabio) as described.[15] Relative mRNA levels of genes were normalized to the housekeeping gene 36B4, and fold-change calculated relative to the vehicle treated samples. Results are the average ± SD from at least two independent experiments carried out in triplicate. Primer sequences for the genes studied were obtained from the Harvard Primer Bank. Sequences are available on their website.

[5] = Pharmacokinetics in mice after single s.c. or oral dose; format: in vivo, female CD1 mice; details: for AUC / Cmax / half-life: female, CD1, mouse, 60 mg/kg, single dose, plasma
FOXM1 [6] = molecular target: T1, FOXM1; assay: tr-FRET competitive binding assay with Fl-NB-72 probe; parameters: we attached a terbium donor to purified, full length FOXM1 through a streptavidin-biotin linker; details: calculated from IC50 values; Supplementary Table 1; read-out: Ki, affinity for binding to FOXM1 protein
Protocol: Competitive binding assays of compound binding to FOXM1 by tr-FRET were done in FRET buffer (20 mM Tris, pH 7.5, 50 mM NaCl, 0.01% NP-40 detergent, 10% glycerol) with 0.3 mg/ml ovalbumin and 0.1 mM butylated hydroxy-anisole added fresh daily. Solutions of the protein, fluorescent probe and compound dilutions were prepared at 3× concentrations, the final dilution taking place as they were mixed together in equal portions on the microtiter plate.
Final concentrations were 10^−5 M to 10^−9 M, with the last point being buffer only, no compound. Fluorescein-NB-72 (Fl-NB- 72) was prepared at 1 mM in DMF and stored at −20 °C. It was diluted into FRET buffer to give 100 nM in the assay. Incubations were done in duplicate on black Molecular Devices 96-well microtiter plates. 5 μl of Fl-NB-72 and 5 μl of the compound dilutions, were mixed together on the plate. To this was added 5 µl biotin-FoxM1 and incubated in the dark at room temperature, for 1 h. […] To correct for background signals, biotin-FOXM1 was omitted, and diffusion-enhanced FRET incubations were done in duplicate on black Molecular Devices 96-well microtiter plates. Five microliter of Fl-NB-72 and 5 μl of the compound solutions were mixed together and then 5 µl of FRET buffer plus SaTb was added, mixed and incubated in the dark at room temperature, for 1 h. The tr-FRET signals measured as above were subtracted as a background from the first incubations that contained biotin-FOXM1. Graphs were prepared using Graph Pad/Prism 4.

MCF7 cells = assay: RNA-Seq gene regulation in MCF7 cells; format: cell-based, human; details: for genes regulated more than 2-fold (Venn diagram): MCF7, 9 h treatment, p < 0.05, FDI-6 20 µM
Protocol: (§1) For gene expression analysis, total RNA was extracted from cells using Trizol reagent and further cleaned using the Turbo DNase and RNAqueous kits (ThermoFisher). Cells were treated with Veh (0.1% EtOH), or with the compounds indicated for 9 h or 24 h. Once the sample quality and replicate reproducibility were verified, samples from each group were subjected to sequencing. RNA at a concentration of 100 ng/µl in nuclease-free water was used for library construction. cDNA libraries were prepared with the mRNA-TruSeq Kit (Illumina, Inc.). In brief, the poly-A containing mRNA was purified from total RNA, the RNA was fragmented, double-stranded cDNA was generated from fragmented RNA, and adapters were ligated to the ends.
The paired-end read data from the HiSeq 4000 were processed and analyzed through a series of steps. Base calling and de-multiplexing of samples within each lane were done with Casava 1.8.2. The RNA sequences were prepared with Illumina’s TruSeq Stranded mRNAseq Sample Prep kit. Reads were trimmed of adapters and low expression data using Trimmomatic version 0.38.[42] The STAR alignment tool version 2.5.3a was used to align the sequenced reads to the GRCh37 human genome from Ensembl.[43] Gene counts were calculated using subread version 1.5.2.[44],[45] The edgeR Bioconductor package in R was used for normalization and differential expression analysis. Default normalization methods were used, specifically trimmed mean of M values or TMM was used to calculate the normalized expression values. This method calculates the weighted trimmed mean of the log expression ratios in a gene-wise fashion.[46],[47] We considered genes with fold-change > 2 and p-value < 0.05 as statistically significant, differentially expressed.

Caspase 3/7 activity = assay: Caspase Glo 3/7 assay; format: cell-based, human; details: 1.5 or 3 µM, 24 h
Protocol: (§2) The cells were analyzed for percentage of apoptotic cells following 24 h or 72 h of vehicle or compound treatment by staining with the Alexa Fluor® 488 Annexin V/Dead Cell Apoptosis Kit (Thermo Fisher) and flow cytometry according to the manufacturer’s protocol. Caspase activity in the cells after treatment with control vehicle or compounds was determined using the Caspase-Glo 3/7 Assay system (Promega) in a 96-well format following the manufacturer’s instructions. Supplementary Figs 6 and 7 exemplify the gating strategy used for the cell cycle and apoptosis flow cytometry analyses.

[7] = system: FOXM1 target genes in MDA-MB-231 cells; assay: RNA-Seq Gene Set Enrichment Analysis against FOXM1 target gene sets; format: cell-based, human; details: NB-73 […] 24 h, siFOXM1 25 nM 72 h
Protocol: as §1
The paired-end read data from the HiSeq 4000 were processed and analyzed through a series of steps. […] Reads were trimmed of adapters and low expression data using Trimmomatic version 0.38.[42] The STAR alignment tool version 2.5.3a was used to align the sequenced reads to the GRCh37 human genome from Ensembl.[43] Gene counts were calculated using subread version 1.5.2.[44],[45] […]
Gene Set Enrichment Analysis (GSEA)[48] was used for examination of our genome-wide expression profiles. Overrepresented gene ontology (GO) biological processes were determined by the web-based DAVID Bioinformatics Resources database.[49],[50] […]

MDA-MB-231 cells [8] = assay: Apoptosis by AnnexinV/propidium iodide flow cytometry; format: cell-based, human; details: 1.5 or 3 µM, 24 h or 72 h
Protocol: as §2

MDA-MB-231 cells [9] = assay: Cell cycle analysis by flow cytometry; format: cell-based, human; details: synchronized, released 24 h, 1.5, 3.0, 4.5 µM
Protocol: Cells were synchronized by double thymidine block prior to cell cycle analysis by Propidium Iodide (PI) staining. Briefly, the cells were blocked with 2 mM thymidine for 18 h, then released with fresh media for 8 h followed by re-blocking with thymidine for another 16 h. Following the second block, the cells were released with or without treatments with the NB compounds and cells were collected and fixed in 70% ethanol at the time points indicated. After alcohol fixation for 2 h, the cells were washed with cold 1XPBS followed by staining with 50 µg/ml PI solution in PBS with addition of 5 µg/ml RNAse A for at least 4 h. The cells were then analyzed by the Flow Cytometry analyzer BD LSR II for percentage of cells in G1/G0, S, and G2/M phases of the cell cycle.

[10] = system: FOXM1-regulated genes in DT22 tumors; assay: FOXM1-regulated gene expression in xenograft tumors by q-PCR; format: in vivo, NSG mice; details: 10 mg/kg NB-73 s.c., end of treatment
Description: Primer sequences for the genes studied were obtained from the Harvard Primer Bank. Sequences are available on their website.

[11] = system: DT22 breast tumor xenografts; assay: DT22 human breast tumor xenograft growth in NSG mice; format: in vivo; details: for tumor growth: DT22 tumors, NSG mice
Protocol: For examination of the effects of compounds on breast tumor growth suppression, intact female NOD/SCID-gamma (NSG) mice were used as detailed previously.[39] DT-22 breast cancer cells (1 × 10^6 cells/mouse) were injected s.c. into the right axial mammary gland. Mice received s.c. injection or oral gavage daily or every second or third day as indicated, with vehicle or treatment compound, and tumor volume (length × width^2/2) was monitored over time.

[12] = system: tamoxifen-resistant MCF7 breast cancer cells; assay: Proliferation of tamoxifen-resistant MCF7 cells; format: cell-based, human; details: 6 days, cell numbers
Protocol: resistant MCF7 cells. Cells were treated with NB-73 or trans-hydroxytamoxifen (OH-
Tam) for 6 days and cell numbers were monitored. Values are mean ± SD of three
(1 picture or pasted object on this page, not shown here)

Nc1c(C(=O)Nc2ccc(F)cc2)sc2nc(-c3cccs3)cc(C(F)(F)F)c12 [FDI-6, reference compound]
intracellular level of FOXM1 (FOXM1 [1]): minimally affected | potency in cells in culture [2]: potency similar to NB-55 | intracellular localization of FOXM1 (FOXM1 [3]): does not change the intracellular localization of FOXM1 | expression of ATF3, a gene suppressed by FOXM1 [4]: increased expression of ATF3 | expression of FOXM1 stimulated target genes (FOXM1C, AURKB, CCNB1, PLK1) [4]: significantly reduced the expression | blood levels ([5]; oral, 40 mg/kg): undetectable | blood levels ([5]; s.c., 20 mg/kg): only very low blood levels | Ki (FOXM1 [6]): 143 nM | genes regulated that overlapped with NB-73 regulated genes (MCF7 cells; MCF7, 9 h, more than 2-fold, FDR < 0.05): 48% | genes regulated more than 2-fold (Venn diagram) (MCF7 cells): 664 genes

C[N+]1(CCCCCCOc2ccc(C(=C3C4CC5CC(C4)CC3C5)c3ccc(OCCCCCC[N+]4(C)CCCCCC4)cc3)cc2)CCCCCC1 [NB-73]
caspase 3/7 activity (Caspase 3/7 activity): increased | normalized enrichment score (NES), FOXM1 target gene set [7]: -1.32 | percent of apoptotic cells (MDA-MB-231 cells [8]): increased the percent of apoptotic cells | percent of cells in G2/M (MDA-MB-231 cells [9]): large increase in the percent of cells in G2/M | percent of cells in S phase (MDA-MB-231 cells [9]): decrease in the percent of cells in S phase | expression of ATF3, a gene suppressed by FOXM1 [4]: increased expression of ATF3 | expression of FOXM1 stimulated target genes (FOXM1C, AURKB, CCNB1, PLK1) [4]: significantly reduced the expression | expression of FOXM1-regulated genes in tumors [10]: greatly reduced | tumor growth ([11]; 5 mg/kg s.c. daily then every other day from day 21): reduced tumor growth | tumor growth ([11]; 10 mg/kg s.c. daily then every other day from day 21): more markedly suppressed growth | tumor growth ([11]; s.c., 20 mg/kg every other day for 10 days then 10 mg/kg every other day): greatly suppress tumor growth | tumor growth in vivo ([11]; low doses (2–20 mg/kg) s.c. daily or every other day): greatly suppress tumor growth | blood levels of compound ([5]; after oral administration): only very low levels | blood levels of compound ([5]; after s.c. injection): very high blood levels | AUC ([5]; oral): 0.015 µM·h | Cmax ([5]; oral): 5.5 nM | half-life ([5]; oral): 40.3 h | AUC ([5]; sc): 158 µM·h | Cmax ([5]; sc): 5300 nM | half-life ([5]; sc): 31.4 h | proliferation of tamoxifen-resistant MCF7 cells [12]: effectively suppressed the proliferation | genes regulated more than 2-fold (Venn diagram) (MCF7 cells): 870 genes
